# Results as given in ChEMBL document CHEMBL1201862, “PubChem BioAssay data set” (2004).
# Active and inactive are the calls of the source.
# What was measured:
# [1] = Luminescence Cell-Based Dose Confirmation HTS to Identify Activators of 5'UTR Stem-Loop Driven Alpha-Synuclein mRNA Translation in H4 Neuroglioblastoma Cells. [Related pubchem assays: 1829 (Project Summary), 1814 (Primary HTS)]; format: functional
# [2] = Luminescence Cell-Based Dose Response HTS to Identify Activators of Luciferase Translation or Activity in H4 […] Cells. [Related pubchem assays: 1829 (Project Summary), 1814 (Primary HTS)]; format: functional
# H4 = experiment: Luminescence Cell-Based Dose Response HTS to Identify Activators of 5'UTR Stem-Loop Driven Prion Protein mRNA Translation in H4 Neuroglioblastoma Cells. [Related pubchem assays: 1829 (Project Summary), 1814 (Primary HTS)]; format: functional; settings: Homo sapiens
# Cytochrome P450 2D6 = Cytochrome P450 2D6 (Homo sapiens, UniProt P10635);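 also: CYP2D6 member of a cytochrome P450 panel assay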
# Cytochrome P450 2C19 = Cytochrome P450 2C19 (Homo sapiens, UniProt P33261); experiment: Cytochrome panel assay with activity outcomes. Panel member name: p450-cyp2c19 Compounds with AC50 equal or less than 10 uM are considered active; format: functional; settings: read-out: AC50
# Cytochrome P450 2C9 = Cytochrome P450 2C9 (Homo sapiens, UniProt P11712)
# Cytochrome P450 1A2 = target: T1, Cytochrome P450 1A2 (Homo sapiens, UniProt P05177);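 also: PubChem cytochrome P450 panel assay, CYP1A2 panel member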
# T1 sequence (P05177 whole entry): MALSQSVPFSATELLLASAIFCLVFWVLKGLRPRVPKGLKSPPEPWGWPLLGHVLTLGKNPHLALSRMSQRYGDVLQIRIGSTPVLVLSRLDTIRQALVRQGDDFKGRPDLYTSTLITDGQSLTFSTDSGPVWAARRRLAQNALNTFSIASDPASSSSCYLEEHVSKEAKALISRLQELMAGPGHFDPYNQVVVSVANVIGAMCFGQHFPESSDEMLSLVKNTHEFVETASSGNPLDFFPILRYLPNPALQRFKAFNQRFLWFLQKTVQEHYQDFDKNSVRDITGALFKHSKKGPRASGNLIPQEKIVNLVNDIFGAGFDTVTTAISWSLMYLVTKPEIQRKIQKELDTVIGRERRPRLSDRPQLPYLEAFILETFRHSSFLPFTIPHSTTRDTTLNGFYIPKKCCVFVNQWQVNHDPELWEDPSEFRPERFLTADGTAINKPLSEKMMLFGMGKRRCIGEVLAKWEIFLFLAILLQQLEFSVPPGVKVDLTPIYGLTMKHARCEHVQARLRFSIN
# [3] = target: T2, Polyadenylate-binding protein 1 (Homo sapiens, UniProt P11940); experiment: MLLE binding blockers, Cy5 peptide tracer – biochemical, fluorescence polarization, Cy5-PAM2 peptide, secondary, miRNA deadenylation inhibitor project, dose response (AID 602260); format: functional; settings: read-out: IC50_Mean
# [4] = target: T2, Polyadenylate-binding protein 1; experiment: MLLE domain peptide-binding blockers, IC50 – biochemical, fluorescence polarization, FITC-PAM2 peptide, dose response (AID 602259); format: functional; settings: read-out: IC50_Mean
# Cytochrome P450 3A4 = Cytochrome P450 3A4 (Homo sapiens, UniProt P08684);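 also: CYP3A4 tested as one member of a cytochrome P450 panel screen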
# Sequence of Cytochrome P450 3A4 (P08684 whole entry): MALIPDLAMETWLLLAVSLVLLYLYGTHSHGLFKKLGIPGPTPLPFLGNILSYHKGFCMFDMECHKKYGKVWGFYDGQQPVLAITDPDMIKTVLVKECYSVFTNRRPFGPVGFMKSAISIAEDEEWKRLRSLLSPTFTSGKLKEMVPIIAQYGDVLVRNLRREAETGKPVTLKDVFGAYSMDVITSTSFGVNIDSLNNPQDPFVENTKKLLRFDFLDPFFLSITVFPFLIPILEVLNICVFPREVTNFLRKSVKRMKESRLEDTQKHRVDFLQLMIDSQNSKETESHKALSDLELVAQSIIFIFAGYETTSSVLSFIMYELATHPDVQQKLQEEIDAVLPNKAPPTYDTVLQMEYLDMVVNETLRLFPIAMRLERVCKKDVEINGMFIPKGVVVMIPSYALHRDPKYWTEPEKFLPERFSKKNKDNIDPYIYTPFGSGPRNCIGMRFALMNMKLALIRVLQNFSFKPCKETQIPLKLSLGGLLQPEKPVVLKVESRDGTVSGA
# Sequence of Cytochrome P450 2D6 (P10635 whole entry): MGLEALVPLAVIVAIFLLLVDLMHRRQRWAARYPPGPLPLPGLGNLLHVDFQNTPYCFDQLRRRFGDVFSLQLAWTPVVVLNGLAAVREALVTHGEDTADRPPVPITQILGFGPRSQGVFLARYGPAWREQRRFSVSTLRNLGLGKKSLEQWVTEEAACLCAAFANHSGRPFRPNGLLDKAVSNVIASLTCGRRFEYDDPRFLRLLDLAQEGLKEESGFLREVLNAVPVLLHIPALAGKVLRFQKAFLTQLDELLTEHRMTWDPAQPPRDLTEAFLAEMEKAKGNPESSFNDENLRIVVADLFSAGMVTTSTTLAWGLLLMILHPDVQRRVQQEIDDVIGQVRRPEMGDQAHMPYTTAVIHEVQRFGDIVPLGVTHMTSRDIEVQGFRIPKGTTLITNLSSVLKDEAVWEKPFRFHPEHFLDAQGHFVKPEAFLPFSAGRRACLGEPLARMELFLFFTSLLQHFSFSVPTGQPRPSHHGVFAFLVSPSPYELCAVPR
# Sequence of Cytochrome P450 2C9 (P11712 whole entry): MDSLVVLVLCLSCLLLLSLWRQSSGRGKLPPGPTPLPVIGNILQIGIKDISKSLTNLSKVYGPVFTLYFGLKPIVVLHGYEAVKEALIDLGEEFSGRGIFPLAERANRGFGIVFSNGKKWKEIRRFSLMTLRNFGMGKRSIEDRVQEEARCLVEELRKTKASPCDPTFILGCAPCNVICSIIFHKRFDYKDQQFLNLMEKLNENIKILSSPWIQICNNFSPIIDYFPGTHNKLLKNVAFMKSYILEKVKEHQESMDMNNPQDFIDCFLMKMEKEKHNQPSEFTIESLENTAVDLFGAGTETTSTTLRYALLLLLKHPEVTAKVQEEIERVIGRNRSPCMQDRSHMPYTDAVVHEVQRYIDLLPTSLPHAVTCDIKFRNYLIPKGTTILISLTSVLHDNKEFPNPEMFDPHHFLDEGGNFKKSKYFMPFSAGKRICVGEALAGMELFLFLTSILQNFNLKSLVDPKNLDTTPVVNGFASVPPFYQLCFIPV
# Sequence of Cytochrome P450 2C19 (P33261 whole entry): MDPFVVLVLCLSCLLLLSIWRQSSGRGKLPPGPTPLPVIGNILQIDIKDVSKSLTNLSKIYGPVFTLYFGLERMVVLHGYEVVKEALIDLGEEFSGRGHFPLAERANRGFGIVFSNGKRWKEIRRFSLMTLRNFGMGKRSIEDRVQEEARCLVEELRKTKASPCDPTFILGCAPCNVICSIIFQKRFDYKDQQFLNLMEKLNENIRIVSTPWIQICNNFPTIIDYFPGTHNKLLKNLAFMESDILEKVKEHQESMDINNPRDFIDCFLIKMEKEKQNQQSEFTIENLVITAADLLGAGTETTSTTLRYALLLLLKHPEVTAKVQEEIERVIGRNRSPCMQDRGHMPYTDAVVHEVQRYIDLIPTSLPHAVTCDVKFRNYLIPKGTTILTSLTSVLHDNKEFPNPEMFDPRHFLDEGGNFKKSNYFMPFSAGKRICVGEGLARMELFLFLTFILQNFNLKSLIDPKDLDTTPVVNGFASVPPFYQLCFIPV
# T2 sequence (P11940 whole entry, the tested form may be a part): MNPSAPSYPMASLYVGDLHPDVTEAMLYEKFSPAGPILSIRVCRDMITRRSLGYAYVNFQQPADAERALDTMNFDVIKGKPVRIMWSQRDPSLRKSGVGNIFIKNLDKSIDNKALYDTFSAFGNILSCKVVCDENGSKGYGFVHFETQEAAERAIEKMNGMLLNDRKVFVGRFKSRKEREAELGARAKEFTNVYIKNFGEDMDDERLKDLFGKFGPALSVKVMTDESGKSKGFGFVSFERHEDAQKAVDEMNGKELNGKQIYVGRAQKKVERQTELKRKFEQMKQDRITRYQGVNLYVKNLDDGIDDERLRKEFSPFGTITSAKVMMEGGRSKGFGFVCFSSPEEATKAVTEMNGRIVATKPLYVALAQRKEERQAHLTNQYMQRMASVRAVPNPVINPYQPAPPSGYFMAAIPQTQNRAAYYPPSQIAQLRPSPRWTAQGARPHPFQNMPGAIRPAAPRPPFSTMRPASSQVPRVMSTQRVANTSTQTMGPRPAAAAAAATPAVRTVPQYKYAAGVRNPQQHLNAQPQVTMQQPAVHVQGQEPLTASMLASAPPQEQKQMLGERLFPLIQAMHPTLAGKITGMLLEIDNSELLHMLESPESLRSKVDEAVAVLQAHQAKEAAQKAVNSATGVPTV
compound,measurement,setting,value
CC12CCC(C(=O)Nc3nc4ccccc4s3)(OC1=O)C2(C)C (stereo unspecified),EC50,[1],> 60 µM (not active)
same,EC50,[2],18.9 µM (active)
same,EC50,H4,12.7 µM (active)
C=CCNC(SCC(=O)c1ccc(Cl)cc1)=C1C(=O)N(C)C(=O)N(C)C1=O,EC50,[1],24.9 µM (active)
same,EC50,[2],> 120 µM (not active)
same,EC50,H4,19.5 µM (active)
O=C(Nc1nc2c(F)cc(F)cc2s1)C1CCN(C(=O)c2ccc(F)cc2)CC1,EC50,[1],3.61 µM (active)
same,EC50,[2],8.78 µM (active)
same,EC50,H4,26.8 µM (active)
N#C[C@H](c1ccccc1)N1CCCN([C@@H](C#N)c2ccccc2)[C@H]1c1ccccc1O,AC50,Cytochrome P450 2D6,5.01 µM (inconclusive)
CCOC(=O)C1CCN(c2c(Nc3ccc4c(c3)OCCO4)c(=O)c2=O)CC1,EC50,[1],18.9 µM (active)
same,EC50,[2],18 µM (active)
same,EC50,H4,9.87 µM (active)
O[C@H](COc1ccccc1)CN1CCCCC1,AC50,Cytochrome P450 2D6,5.01 µM (inconclusive)
CCn1c(Cc2ccccc2)nnc1SCC(=O)NC(C)(C)C,AC50,Cytochrome P450 2C19,14.1 µM (inconclusive)
same,AC50,Cytochrome P450 2C9,12.6 µM (inconclusive)
CCCCCC1CCC(C(=O)NN=C(S)NCC)CC1 (stereo unspecified),AC50,Cytochrome P450 2D6,15.8 µM (inconclusive)
same,AC50,Cytochrome P450 1A2,12.6 µM (inconclusive)
same,AC50,Cytochrome P450 2C9,1.78 µM (inconclusive)
CN(Cc1ccccc1)S(=O)(=O)c1ccc(NC(=S)NC(=O)C(C)(C)C)cc1,IC50,[3],> 66 µM (inactive)
same,IC50,[4],> 66 µM (inactive)
COc1ccc(CNc2nc(-c3cccc(C#N)c3)nc3ccccc23)c(OC)c1,AC50,Cytochrome P450 2C19,1.58 µM (inconclusive)
same,AC50,Cytochrome P450 2D6,3.98 µM (inconclusive)
same,AC50,Cytochrome P450 2C9,1 µM (inconclusive)
O=C1CN=C(Nc2ccc(Cl)cc2)N1c1ccccc1,AC50,Cytochrome P450 2D6,20 µM (inconclusive)
same,AC50,Cytochrome P450 1A2,14.1 µM (inconclusive)
same,AC50,Cytochrome P450 3A4,14.1 µM (inconclusive)
same,AC50,Cytochrome P450 2C9,0.00562 µM (inconclusive)
NC(=O)CN1CCN(c2nc(-c3ccc(F)cc3)cs2)CC1,AC50,Cytochrome P450 3A4,14.1 µM (inconclusive)
same,AC50,Cytochrome P450 2C9,6.31 µM (inconclusive)
CC(C)NCCCOc1ccc(Cl)cc1Br,AC50,Cytochrome P450 2C9,4.47 µM (inconclusive)
Cc1noc(C)c1C(=O)N1CCC2(CCCN(c3ccccc3)C2)CC1,AC50,Cytochrome P450 2D6,12.6 µM (inconclusive)
same,AC50,Cytochrome P450 3A4,15.8 µM (inconclusive)
CCCOC1CCCN(C(=O)CCc2nnc(Cc3cccc(C)c3)o2)C1 (stereo unspecified),EC50,[1],9.73 µM (active)
same,EC50,[2],16.5 µM (active)
same,EC50,H4,16.5 µM (inconclusive)
COCCn1c(=O)c(-c2cc(F)cc(F)c2)nc2cnc(Oc3ccccc3)nc21,AC50,Cytochrome P450 2C19,39.8 µM (inconclusive)
same,AC50,Cytochrome P450 3A4,20 µM (inconclusive)
same,AC50,Cytochrome P450 2C9,20 µM (inconclusive)
C=CCSc1nc2c(c(=O)[nH]c(=O)n2C)n1C(C)C,IC50,[3],> 66 µM (inactive)
same,IC50,[4],> 66 µM (inactive)
O=C(NC(=S)N1C[C@H]2C[C@H](C1)c1cccc(=O)n1C2)c1ccc(Cl)cc1,IC50,[3],> 66 µM (inactive)
same,IC50,[4],> 66 µM (inactive)
O=C(Nc1cc(C(F)(F)F)ccc1Cl)c1cc2nc3c(c(C(F)(F)F)n2n1)CCCC3,EC50,[1],1.53 µM (active)
same,EC50,[2],0.365 µM (active)
same,EC50,H4,0.195 µM (active)
CCCC[C@@H]1C[C@H]1C(NC(=O)c1ccco1)c1ccccc1 (stereo partly specified),AC50,Cytochrome P450 2D6,39.8 µM (inconclusive)
same,AC50,Cytochrome P450 3A4,20 µM (inconclusive)
CCC(=O)Nc1ccc(Cl)c(NC(=S)NC(=O)COc2ccccc2)c1,IC50,[3],> 66 µM (inactive)
same,IC50,[4],> 66 µM (inactive)
S=C(N=Nc1ccccc1)NNc1ccccc1,EC50,[1],14.4 µM (active)
same,EC50,[2],14.1 µM (active)
same,EC50,H4,27.9 µM (inconclusive)
S=C1SCN(C2CCCCCCCCCCC2)CN1C1CCCCCCCCCCC1,AC50,Cytochrome P450 2D6,3.16 µM (inconclusive)
COC(=O)c1cc(OC)c(OC)cc1NC(=O)CSc1ccc(C)cc1,AC50,Cytochrome P450 2C9,7.94 µM (inconclusive)
O=C(c1csnn1)N1CCC2(CC1)CCN(c1ncccn1)CC2,AC50,Cytochrome P450 2D6,39.8 µM (inconclusive)
